As a reminder, the Ki is a dissociation constant, usually derived from enzyme kinetics or from competition with a known ligand. Higher therefore signals weaker binding.

T1 sequence (Q99705 whole entry): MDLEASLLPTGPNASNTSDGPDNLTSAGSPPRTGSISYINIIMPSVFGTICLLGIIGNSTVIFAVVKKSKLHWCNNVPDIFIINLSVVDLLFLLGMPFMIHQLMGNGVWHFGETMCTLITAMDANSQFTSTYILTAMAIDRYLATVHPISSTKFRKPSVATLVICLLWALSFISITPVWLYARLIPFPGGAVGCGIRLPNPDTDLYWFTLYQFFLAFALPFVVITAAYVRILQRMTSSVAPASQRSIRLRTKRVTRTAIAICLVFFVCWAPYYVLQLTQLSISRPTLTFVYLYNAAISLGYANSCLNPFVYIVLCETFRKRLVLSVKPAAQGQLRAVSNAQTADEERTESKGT

The assay concerns the target T1, MCH receptor (Homo sapiens, UniProt Q99705).
T1 construct: expressed in transfected cells; host or cells: CHO cells
Description: MCH Receptor Binding Assay. The settings on record: [125I]-MCH, SPA, membranes from CHO cells expressing the MCH receptor. Here is the method:
Membranes from CHO cells expressing the MCH receptor were prepared by lysing cells with 5 mM HEPES for 15 min at 4C. Cell lysates were centrifuged ([…], 15 min) and the pellet was re-suspended in 5 mM HEPES. For each 96-well plate (Microlite, Dynex Technologies), 1 mg of cell membranes were incubated with 10 mg of wheat germ agglutinin SPA beads (Amersham) for 5 min at 4 C in a volume of 10 ml of binding buffer (25 mM HEPES, 10 mM MGCl2, 10 mM NaCl, 5 mM MnCl2, 0.1% BSA). The membrane/bead mixture was centrifuged (1500×g, 3.5 min), the supernatant was aspirated, and the pellet was re-suspended in 10 ml binding buffer. The centrifugation, aspiration and re-suspension were then repeated. The membrane/bead mixture (100 μl) was then added to 96-well plates containing 50 μl of 500 pM [^125I]-MCH (NEN) and […] of the appropriate concentration of compound (4× the desired final concentration). Nonspecific binding was determined by including 1 μM MCH in the binding reaction. The binding reaction was incubated at room temperature for 2 h. Plates were then analyzed in a TOPCOUNT microplate scintillation counter (Packard). Data was analyzed and Ki values were determined using GraphPad Prism.
Turning to `N#Cc1cccc(-c2ccc(C3(NCC(=O)Nc4ccc(F)c(C(F)(F)F)c4)CCN(C4CCCC4)CC3)cc2)c1`, the Ki was found to be 0.016 µM. To `CN(CC(=O)Nc1ccc(F)c(C(F)(F)F)c1)C1(c2ccc(-c3cccc(C#N)c3)cc2)CCN(C2CCCC2)CC1` belongs 0.018 µM; to `N#Cc1cccc(-c2ccc(C3(NCC(=O)Nc4ccc(F)c(Cl)c4)CCN(C4CCCC4)CC3)cc2)c1`, 0.0026 µM; to `CN(CC(=O)Nc1ccc(F)c(Cl)c1)C1(c2ccc(-c3cccc(C#N)c3)cc2)CCN(C2CCCC2)CC1`, 0.0042 µM.

As for `N#Cc1cccc(-c2ccc(C3(NCC(=O)Nc4ccc(Cl)c(C(F)(F)F)c4)CCN(C4CCCC4)CC3)cc2)c1`, the Ki came to 0.023 µM.

`CN(CC(=O)Nc1ccc(Cl)c(C(F)(F)F)c1)C1(c2ccc(-c3cccc(C#N)c3)cc2)CCN(C2CCCC2)CC1` came in with an inhibitory constant (Ki) of 0.016 µM.

`N#Cc1cccc(-c2ccc(C3(NCC(=O)Nc4cc(F)cc(F)c4)CCN(C4CCCC4)CC3)cc2)c1` registered an inhibitory constant (Ki) of 0.0025 µM. This Ki is about 6.4-fold lower than that of the compound before.

`CN(CC(=O)Nc1cc(F)cc(F)c1)C1(c2ccc(-c3cccc(C#N)c3)cc2)CCN(C2CCCC2)CC1` displayed a Ki of 0.0062 µM.

Turning to `N#Cc1cccc(-c2ccc(C3(N(CC(=O)Nc4cc(F)cc(F)c4)CC4CC4)CCN(C4CCCC4)CC3)cc2)c1`, the affinity, expressed as Ki, was 0.069 µM. In turn, `N#Cc1cccc(-c2ccc(C3(OCC(=O)Nc4cc(Cl)cc(Cl)c4)CCNCC3)cc2)c1` came in with an inhibition constant Ki of 0.0032 µM.

`CN1CCC(OCC(=O)Nc2cc(Cl)cc(Cl)c2)(c2ccc(-c3cccc(C#N)c3)cc2)CC1` returned a Ki of 0.004 µM. The result for `N#Cc1cccc(-c2ccc(C3(OCC(=O)Nc4cc(Cl)cc(Cl)c4)CCN(CC4CC4)CC3)cc2)c1` reads 0.0018 µM; that for `N#Cc1cccc(-c2ccc(C3(OCC(=O)Nc4cc(Cl)cc(Cl)c4)CCN(C4CCCC4)CC3)cc2)c1`, 0.0022 µM; that for `CCN(CC(=O)Nc1ccc(F)c(Cl)c1)C1(c2ccc(-c3cccc(C#N)c3)cc2)CCN(C2CCCC2)CC1`, 0.0106 µM.

`N#Cc1cccc(-c2ccc(C3(OCC(=O)Nc4ccc(F)c(Cl)c4)CCN(CC4CC4)CC3)cc2)c1` returned a Ki of 0.002 µM. The result for `N#Cc1cccc(-c2ccc(C3(OCC(=O)Nc4ccc(Cl)c(C(F)(F)F)c4)CCN(CC4CC4)CC3)cc2)c1` reads 0.023 µM; that for `O=C(CNC1(c2ccc(-c3cccc(OC(F)(F)F)c3)cc2)CCN(C2CCCC2)CC1)Nc1ccc(F)c(Cl)c1`, 0.076 µM; that for `CC(C)(C)OC(=O)N1CCC(NCC(=O)Nc2ccc(F)c(Cl)c2)(c2ccc(-c3cccc(C#N)c3)cc2)CC1`, 0.056 µM. Consider `N#Cc1cccc(-c2ccc(C3(OCC(=O)Nc4cc(Cl)cc(Cl)c4)CCN(C4CCCCC4)CC3)cc2)c1`, for which the affinity corresponds to a Ki of 0.019 µM. This Ki is about 2.9-fold lower than that of the compound before.

Compound `CC1CCC(N2CCC(OCC(=O)Nc3cc(Cl)cc(Cl)c3)(c3ccc(-c4cccc(C#N)c4)cc3)CC2)C1` (stereo not drawn) registered a Ki of 0.011 µM. Compared with the last compound, the Ki is about 1.7-fold lower. To `N#Cc1cccc(-c2ccc(C3(OCC(=O)Nc4cc(Cl)cc(Cl)c4)CCN(C4CCOCC4)CC3)cc2)c1` belongs 0.009 µM; to `N#Cc1cccc(-c2ccc(C3(OCC(=O)Nc4cc(Cl)cc(Cl)c4)CCN(C4CCSC4)CC3)cc2)c1` (stereo not drawn), 0.019 µM. In the case of `CC1CCC(C)CC(N2CCC(OCC(=O)Nc3cc(Cl)cc(Cl)c3)(c3ccc(-c4cccc(C#N)c4)cc3)CC2)C1` (stereo not drawn), the inhibitory constant (Ki) is 0.02 µM. Compound `N#Cc1cccc(-c2ccc(C3(OCC(=O)Nc4cc(Cl)cc(Cl)c4)CCN(C4Cc5ccccc5C4)CC3)cc2)c1` registered a Ki of 0.062 µM. Consider `COC1CCCC(CN2CCC(OCC(=O)Nc3cc(Cl)cc(Cl)c3)(c3ccc(-c4cccc(C#N)c4)cc3)CC2)O1` (stereo not drawn), for which affinity was put at a Ki of 0.02 µM. This Ki lies about 3.1-fold lower than the previous one. Turning to `N#Cc1cccc(-c2ccc(C3(OCC(=O)Nc4cc(Cl)cc(Cl)c4)CCN(C4C5CCCC4CCC5)CC3)cc2)c1` (stereo not drawn), the Ki stood at 0.048 µM. This Ki lies about 2.4-fold higher than the previous one. `CC(C)C1CCC(N2CCC(OCC(=O)Nc3cc(Cl)cc(Cl)c3)(c3ccc(-c4cccc(C#N)c4)cc3)CC2)CC1` (stereo not drawn) registered an inhibition constant Ki of 0.019 µM. As to `CC(=O)C1CCC(N2CCC(OCC(=O)Nc3cc(Cl)cc(Cl)c3)(c3ccc(-c4cccc(C#N)c4)cc3)CC2)CC1` (stereo not drawn), the inhibition constant (Ki) was found to be 0.006 µM. To `N#Cc1cccc(-c2ccc(C3(OCC(=O)Nc4cc(Cl)cc(Cl)c4)CCN(C4CCC5CCCCC5C4)CC3)cc2)c1` (stereo not drawn) belongs 0.036 µM; to `N#Cc1cccc(-c2ccc(C3(OCC(=O)Nc4cc(Cl)cc(Cl)c4)CCN(C4CCC(C(F)(F)F)CC4)CC3)cc2)c1` (stereo not drawn), 0.049 µM; to `N#Cc1cccc(-c2ccc(C3(OCC(=O)Nc4cc(Cl)cc(Cl)c4)CCN(C4CCCC(C(F)(F)F)C4)CC3)cc2)c1` (stereo not drawn), 0.086 µM.

On to `N#Cc1cccc(-c2ccc(C3(OCC(=O)Nc4cc(Cl)cc(Cl)c4)CCN(C4CCC(c5ccccc5)CC4)CC3)cc2)c1` (stereo not drawn), for which affinity was put at a Ki of 0.095 µM. The Ki values of the last two compounds are within 1.5-fold of each other. For the compound `CC(C)CCN1CCC(OCC(=O)Nc2cc(Cl)cc(Cl)c2)(c2ccc(-c3cccc(C#N)c3)cc2)CC1`, the affinity, expressed as Ki, was 0.03 µM. Compared with the last compound, the Ki is about 3.2-fold lower. The compound `CCC(C)CN1CCC(OCC(=O)Nc2cc(Cl)cc(Cl)c2)(c2ccc(-c3cccc(C#N)c3)cc2)CC1` (stereo not drawn) showed a Ki of 0.021 µM.

`N#Cc1cccc(-c2ccc(C3(OCC(=O)Nc4cc(Cl)cc(Cl)c4)CCN(Cc4cccs4)CC3)cc2)c1` came in with an inhibitory constant (Ki) of 0.026 µM. The Ki values of the last two compounds are within 1.5-fold of each other. The result for `N#Cc1cccc(-c2ccc(C3(OCC(=O)Nc4cc(Cl)cc(Cl)c4)CCN(Cc4ccsc4)CC3)cc2)c1` reads 0.027 µM. For `N#Cc1cccc(-c2ccc(C3(OCC(=O)Nc4cc(Cl)cc(Cl)c4)CCN(Cc4cccc(O)c4)CC3)cc2)c1`, affinity was put at a Ki of 0.019 µM. Regarding `N#Cc1cccc(-c2ccc(C3(OCC(=O)Nc4cc(Cl)cc(Cl)c4)CCN(Cc4ccc(O)cc4)CC3)cc2)c1`, the affinity, expressed as Ki, was 0.02 µM. `N#Cc1cccc(-c2ccc(C3(OCC(=O)Nc4cc(Cl)cc(Cl)c4)CCN(CCCc4ccccc4)CC3)cc2)c1`: the inhibition constant Ki was 0.05 µM. Compound `CC(CN1CCC(OCC(=O)Nc2cc(Cl)cc(Cl)c2)(c2ccc(-c3cccc(C#N)c3)cc2)CC1)c1ccccc1` (stereo not drawn) yielded a Ki of 0.042 µM. To `COc1ccccc1CN1CCC(OCC(=O)Nc2cc(Cl)cc(Cl)c2)(c2ccc(-c3cccc(C#N)c3)cc2)CC1` belongs 0.015 µM; to `COc1ccc(CN2CCC(OCC(=O)Nc3cc(Cl)cc(Cl)c3)(c3ccc(-c4cccc(C#N)c4)cc3)CC2)cc1`, 0.039 µM. For the compound `CC(CCN1CCC(OCC(=O)Nc2cc(Cl)cc(Cl)c2)(c2ccc(-c3cccc(C#N)c3)cc2)CC1)c1ccccc1` (stereo not drawn), the Ki amounted to 0.072 µM. The result for `O=C(CNC1(c2ccc(-c3cc(Cl)ccc3Cl)cc2)CCN(C2CCCC2)CC1)Nc1ccc(F)c(Cl)c1` reads 0.052 µM.

`CN(CC(=O)Nc1ccc(F)c(Cl)c1)C1(c2ccc(-c3cccc(C#N)c3)cc2)CCN(CCO)CC1` registered a Ki of 0.01 µM. In the case of `N#Cc1cccc(-c2ccc(C3(OCC(=O)Nc4ccc(Cl)c(C(F)(F)F)c4)CCN(CCO)CC3)cc2)c1`, the Ki was found to be 0.048 µM.

As for `N#Cc1cccc(-c2ccc(C3(OCC(=O)Nc4ccc(Cl)c(C(F)(F)F)c4)CCN(C4CCCC4)CC3)cc2)c1`, affinity was put at a Ki of 0.049 µM. To `N#Cc1cccc(-c2ccc(C3(OCC(=O)Nc4ccc(F)c(Cl)c4)CCN(CCO)CC3)cc2)c1` belongs 0.0082 µM.

Compound `O=Cc1cccc(-c2ccc(C3(NCC(=O)Nc4ccc(F)c(Cl)c4)CCN(C4CCCC4)CC3)cc2)c1` returned an inhibition constant Ki of 0.021 µM. `O=C(CNC1(c2ccc(-c3cccc(-c4ncc[nH]4)c3)cc2)CCN(C2CCCC2)CC1)Nc1ccc(F)c(Cl)c1` had a Ki of 0.0083 µM. Against the preceding compound, the Ki is about 2.5-fold lower. To `N#Cc1cccc(-c2ccc(C3(CCC(=O)Nc4cc(Cl)cc(Cl)c4)CCN(C4CCCC4)CC3)cc2)c1` belongs 0.0355 µM; to `N#Cc1cccc(-c2ccc(C3(CCC(=O)Nc4ccc(F)c(Cl)c4)CCN(C4CCCC4)CC3)cc2)c1`, 0.026 µM; to `N#Cc1cccc(-c2ccc(C3(CCC(=O)Nc4cc(F)cc(F)c4)CCN(C4CCCC4)CC3)cc2)c1`, 0.036 µM. Compound `N#Cc1cccc(-c2ccc(C3(CCC(=O)Nc4ccc(F)c(F)c4)CCN(C4CCCC4)CC3)cc2)c1` had an inhibition constant (Ki) of 0.015 µM. The result for `CC(C)(C)OC(=O)N1CCC(CCC(=O)Nc2ccc(F)c(F)c2)(c2ccc(-c3cccc(C#N)c3)cc2)CC1` reads 0.051 µM. To `N#Cc1cccc(-c2ccc(C3(CCC(=O)Nc4ccc(F)c(F)c4)CCNCC3)cc2)c1` belongs 0.025 µM; to `N#Cc1cccc(-c2ccc(C3(CCC(=O)Nc4ccc(F)c(F)c4)CCN(CC4CC4)CC3)cc2)c1`, 0.008 µM. To `N#Cc1cccc(-c2ccc(C3(CCC(=O)Nc4cc(Cl)cc(Cl)c4)CCN(CC4CC4)CC3)cc2)c1` belongs 0.027 µM.

`N#Cc1cccc(-c2ccc(C3(CCC(=O)Nc4ccc(F)c(F)c4)CCN(C4CCC4)CC3)cc2)c1` returned a Ki of 0.019 µM.

`N#Cc1cccc(-c2ccc(C3(CCC(=O)Nc4ccc(F)c(Cl)c4)CCN(CC4CC4)CC3)cc2)c1`: the Ki was 0.034 µM. To `N#Cc1cccc(-c2ccc(C3(CCC(=O)Nc4cc(F)cc(F)c4)CCN(CC4CC4)CC3)cc2)c1` belongs 0.031 µM. To `N#Cc1cccc(-c2ccc(C3(CCC(=O)Nc4cc(F)cc(C(F)(F)F)c4)CCN(CC4CC4)CC3)cc2)c1` belongs 0.049 µM; to `CC(=O)N1CCC(CCC(=O)Nc2ccc(F)c(F)c2)(c2ccc(-c3cccc(C#N)c3)cc2)CC1`, 0.061 µM. `CCN(CC)C(=O)N1CCC(CCC(=O)Nc2ccc(F)c(F)c2)(c2ccc(-c3cccc(C#N)c3)cc2)CC1` showed an inhibition constant Ki of 0.045 µM. This Ki and that of the compound before are within 1.5-fold of each other. The result for `N#Cc1cccc(-c2ccc(C3(CCC(=O)Nc4ccc(Cl)c(C(F)(F)F)c4)CCN(CC4CC4)CC3)cc2)c1` reads 0.08 µM; that for `N#Cc1cccc(-c2ccc(C3(CCC(=O)Nc4cccc(OC(F)(F)F)c4)CCN(CC4CC4)CC3)cc2)c1`, 0.069 µM.

These data come from patent publication US6664273B2, “Piperidine based MCH antagonists for treatment of obesity and CNS disorders” (Schering Corporation, priority 2001, dated 2003).
